Key:
[1] = Protein binding in mouse plasma at 10 mg/kg, po; type: ADME, organism-based; conditions: read-out: PPB (converted)
[2] = Cmax in mouse at 10 mg/kg, po; type: ADME, organism-based; set-up: dose 10 mg/kg, route oral; conditions: in vivo
[3] = Metabolic stability in mouse liver microsomes assessed as compound remaining after 10 mins; type: ADME, microsome; conditions: read-out: Stability
[4] = target: Tyrosine-protein kinase JAK2 (Homo sapiens, UniProt O60674); assay: Inhibition of GST-tagged JAK2 (unknown origin) after 3 hrs by Caliper assay
Sequence of Tyrosine-protein kinase JAK2 (O60674 whole entry): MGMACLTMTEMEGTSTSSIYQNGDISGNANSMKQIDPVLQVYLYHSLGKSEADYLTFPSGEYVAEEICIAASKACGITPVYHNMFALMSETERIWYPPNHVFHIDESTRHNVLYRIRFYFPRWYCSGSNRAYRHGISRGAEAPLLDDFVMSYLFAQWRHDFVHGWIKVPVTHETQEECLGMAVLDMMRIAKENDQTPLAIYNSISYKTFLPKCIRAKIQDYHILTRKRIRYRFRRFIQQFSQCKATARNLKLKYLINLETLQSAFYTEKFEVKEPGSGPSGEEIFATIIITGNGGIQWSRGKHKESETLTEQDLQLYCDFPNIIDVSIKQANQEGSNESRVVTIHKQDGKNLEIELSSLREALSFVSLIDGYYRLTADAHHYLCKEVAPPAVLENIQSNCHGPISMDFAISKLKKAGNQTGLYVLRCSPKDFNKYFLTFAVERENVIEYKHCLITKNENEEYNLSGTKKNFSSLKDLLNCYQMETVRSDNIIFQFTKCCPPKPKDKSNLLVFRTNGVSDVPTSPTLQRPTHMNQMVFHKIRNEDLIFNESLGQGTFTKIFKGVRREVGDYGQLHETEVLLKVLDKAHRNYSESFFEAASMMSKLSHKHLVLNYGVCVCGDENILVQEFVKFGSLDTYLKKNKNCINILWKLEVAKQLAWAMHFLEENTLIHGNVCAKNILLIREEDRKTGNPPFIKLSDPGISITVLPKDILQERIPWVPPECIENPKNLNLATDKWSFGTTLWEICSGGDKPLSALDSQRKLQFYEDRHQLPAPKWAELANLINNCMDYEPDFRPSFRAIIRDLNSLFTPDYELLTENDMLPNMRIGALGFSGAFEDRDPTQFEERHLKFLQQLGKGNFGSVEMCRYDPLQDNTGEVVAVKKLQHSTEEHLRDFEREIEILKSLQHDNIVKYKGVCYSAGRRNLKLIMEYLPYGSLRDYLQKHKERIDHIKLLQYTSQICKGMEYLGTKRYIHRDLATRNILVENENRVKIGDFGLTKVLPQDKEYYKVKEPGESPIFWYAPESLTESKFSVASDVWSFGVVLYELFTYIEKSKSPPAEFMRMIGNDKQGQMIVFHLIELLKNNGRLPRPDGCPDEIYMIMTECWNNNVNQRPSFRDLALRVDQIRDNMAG

[5] = target: Tyrosine-protein kinase JAK1 (Homo sapiens, UniProt P23458); assay: Inhibition of GST-tagged JAK1 (unknown origin) after 3 hrs by Caliper assay
Sequence of Tyrosine-protein kinase JAK1 (P23458 whole entry): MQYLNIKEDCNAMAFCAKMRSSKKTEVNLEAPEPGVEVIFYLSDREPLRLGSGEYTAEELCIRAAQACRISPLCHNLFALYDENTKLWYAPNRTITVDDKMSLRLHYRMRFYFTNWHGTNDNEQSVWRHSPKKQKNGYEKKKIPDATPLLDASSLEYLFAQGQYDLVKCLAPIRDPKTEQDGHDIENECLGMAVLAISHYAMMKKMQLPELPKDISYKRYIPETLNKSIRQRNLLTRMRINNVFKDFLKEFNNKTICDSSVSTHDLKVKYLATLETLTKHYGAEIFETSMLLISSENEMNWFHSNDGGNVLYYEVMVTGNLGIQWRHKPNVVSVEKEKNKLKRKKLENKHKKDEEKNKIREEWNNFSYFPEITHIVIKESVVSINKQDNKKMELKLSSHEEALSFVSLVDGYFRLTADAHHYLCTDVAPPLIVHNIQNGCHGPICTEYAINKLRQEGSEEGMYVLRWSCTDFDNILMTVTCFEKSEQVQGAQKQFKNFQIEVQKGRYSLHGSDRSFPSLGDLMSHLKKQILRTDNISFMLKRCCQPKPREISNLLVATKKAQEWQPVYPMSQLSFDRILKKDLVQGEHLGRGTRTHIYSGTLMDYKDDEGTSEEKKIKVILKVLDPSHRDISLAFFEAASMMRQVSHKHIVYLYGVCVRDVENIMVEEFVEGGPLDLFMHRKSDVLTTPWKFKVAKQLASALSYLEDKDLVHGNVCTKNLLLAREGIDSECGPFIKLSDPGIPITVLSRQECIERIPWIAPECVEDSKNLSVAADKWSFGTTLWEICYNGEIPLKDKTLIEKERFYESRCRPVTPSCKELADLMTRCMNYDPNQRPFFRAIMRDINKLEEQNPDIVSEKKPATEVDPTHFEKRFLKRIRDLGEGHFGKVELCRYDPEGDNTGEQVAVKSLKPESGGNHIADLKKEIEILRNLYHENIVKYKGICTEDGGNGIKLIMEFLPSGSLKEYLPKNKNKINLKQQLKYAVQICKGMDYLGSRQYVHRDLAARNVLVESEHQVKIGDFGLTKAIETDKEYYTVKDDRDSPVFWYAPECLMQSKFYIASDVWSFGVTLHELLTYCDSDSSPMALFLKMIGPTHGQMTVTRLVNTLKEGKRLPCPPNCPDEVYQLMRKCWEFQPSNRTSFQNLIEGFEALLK

JAK3/JAK1 = JAK3/JAK1 (Homo sapiens, UniProt P23458+P52333); assay: Inhibition of JAK1/JAK3 in human whole blood assessed as reduction in IL-2 induced IFN-gamma production after 18 hrs by ELISA; type: protein-complex assay
Sequence of JAK3/JAK1 (P23458 whole entry, one chain of several): as the sequence (P23458 whole entry) above

[6] = target: Non-receptor tyrosine-protein kinase TYK2 (Homo sapiens, UniProt P29597); assay: Inhibition of His-tagged TYK2 (unknown origin) after 3 hrs by Caliper assay
Sequence of Non-receptor tyrosine-protein kinase TYK2 (P29597 whole entry): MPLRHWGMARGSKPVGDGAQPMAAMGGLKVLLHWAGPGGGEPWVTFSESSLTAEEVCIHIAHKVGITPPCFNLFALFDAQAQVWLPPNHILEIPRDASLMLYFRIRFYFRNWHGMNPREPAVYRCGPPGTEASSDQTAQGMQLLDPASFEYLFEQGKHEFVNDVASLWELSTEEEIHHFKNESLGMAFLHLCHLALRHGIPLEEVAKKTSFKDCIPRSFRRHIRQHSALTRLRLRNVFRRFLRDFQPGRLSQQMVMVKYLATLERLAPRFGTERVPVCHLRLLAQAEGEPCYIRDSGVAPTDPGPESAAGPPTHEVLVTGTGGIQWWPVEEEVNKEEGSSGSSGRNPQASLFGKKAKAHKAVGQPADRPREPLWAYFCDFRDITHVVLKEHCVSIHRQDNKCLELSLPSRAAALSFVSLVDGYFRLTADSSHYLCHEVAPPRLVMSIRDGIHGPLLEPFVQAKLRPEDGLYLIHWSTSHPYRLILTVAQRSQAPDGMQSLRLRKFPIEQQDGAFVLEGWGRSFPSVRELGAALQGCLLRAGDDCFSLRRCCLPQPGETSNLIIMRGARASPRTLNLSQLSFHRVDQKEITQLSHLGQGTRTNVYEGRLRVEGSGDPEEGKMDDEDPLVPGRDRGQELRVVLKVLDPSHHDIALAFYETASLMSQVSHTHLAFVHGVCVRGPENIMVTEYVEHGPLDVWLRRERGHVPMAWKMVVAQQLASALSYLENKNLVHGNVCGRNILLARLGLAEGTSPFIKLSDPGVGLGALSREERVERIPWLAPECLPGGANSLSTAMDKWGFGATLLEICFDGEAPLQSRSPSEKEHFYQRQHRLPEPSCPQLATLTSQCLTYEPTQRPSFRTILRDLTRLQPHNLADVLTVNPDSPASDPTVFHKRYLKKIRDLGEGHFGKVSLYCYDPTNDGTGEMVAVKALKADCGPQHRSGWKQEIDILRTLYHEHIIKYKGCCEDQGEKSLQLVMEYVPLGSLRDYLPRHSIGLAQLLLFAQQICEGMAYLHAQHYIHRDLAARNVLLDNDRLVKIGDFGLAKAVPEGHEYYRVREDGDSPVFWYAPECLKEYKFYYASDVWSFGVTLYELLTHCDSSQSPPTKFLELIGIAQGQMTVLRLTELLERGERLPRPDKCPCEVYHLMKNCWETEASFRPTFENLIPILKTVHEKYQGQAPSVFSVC

[7] = target: T1, Tyrosine-protein kinase JAK3 (Homo sapiens, UniProt P52333); assay: Inhibition of JAK3 (unknown origin) using CSKtide as substrate after 30 mins in presence of [gamma33P]ATP by liquid scintillation counting method
T1 sequence (P52333 whole entry): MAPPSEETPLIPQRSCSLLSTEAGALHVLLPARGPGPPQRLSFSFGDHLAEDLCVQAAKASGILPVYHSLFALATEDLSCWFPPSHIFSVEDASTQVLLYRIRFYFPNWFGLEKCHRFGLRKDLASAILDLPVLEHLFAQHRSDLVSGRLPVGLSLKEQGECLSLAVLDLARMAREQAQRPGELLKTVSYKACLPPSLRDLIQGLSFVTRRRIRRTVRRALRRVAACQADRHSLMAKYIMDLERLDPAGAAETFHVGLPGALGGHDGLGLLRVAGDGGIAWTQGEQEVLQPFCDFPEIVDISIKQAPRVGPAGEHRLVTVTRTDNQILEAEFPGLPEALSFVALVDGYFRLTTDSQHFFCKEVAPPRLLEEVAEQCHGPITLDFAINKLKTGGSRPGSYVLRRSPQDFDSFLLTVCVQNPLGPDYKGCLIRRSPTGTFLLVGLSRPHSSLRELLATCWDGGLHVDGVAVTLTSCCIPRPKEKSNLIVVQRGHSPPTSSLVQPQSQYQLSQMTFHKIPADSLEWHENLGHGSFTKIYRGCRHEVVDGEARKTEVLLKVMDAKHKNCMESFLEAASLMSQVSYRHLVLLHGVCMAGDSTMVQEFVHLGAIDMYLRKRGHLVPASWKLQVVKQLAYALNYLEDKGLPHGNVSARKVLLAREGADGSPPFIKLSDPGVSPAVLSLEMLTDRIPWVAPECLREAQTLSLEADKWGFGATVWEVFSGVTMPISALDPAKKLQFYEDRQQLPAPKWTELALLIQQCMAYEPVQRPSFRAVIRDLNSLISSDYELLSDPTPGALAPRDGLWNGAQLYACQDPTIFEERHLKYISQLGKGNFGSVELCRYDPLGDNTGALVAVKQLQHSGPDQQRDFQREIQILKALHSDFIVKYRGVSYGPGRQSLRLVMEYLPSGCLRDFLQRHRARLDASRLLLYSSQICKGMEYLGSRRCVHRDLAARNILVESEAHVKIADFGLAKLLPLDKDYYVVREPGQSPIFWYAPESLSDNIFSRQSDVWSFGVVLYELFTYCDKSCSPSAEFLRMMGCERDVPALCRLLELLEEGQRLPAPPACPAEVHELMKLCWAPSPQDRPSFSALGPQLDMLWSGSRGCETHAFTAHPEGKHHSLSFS

[8] = Permeability from apical side to basolateral side in human Caco2 cells; type: ADME, cell-based; conditions: Caco-2, read-out: permeability
[9] = target: Voltage-gated inwardly rectifying potassium channel KCNH2 (Homo sapiens, UniProt Q12809); assay: Inhibition of human ERG by flux-based assay
Sequence of Voltage-gated inwardly rectifying potassium channel KCNH2 (Q12809 whole entry): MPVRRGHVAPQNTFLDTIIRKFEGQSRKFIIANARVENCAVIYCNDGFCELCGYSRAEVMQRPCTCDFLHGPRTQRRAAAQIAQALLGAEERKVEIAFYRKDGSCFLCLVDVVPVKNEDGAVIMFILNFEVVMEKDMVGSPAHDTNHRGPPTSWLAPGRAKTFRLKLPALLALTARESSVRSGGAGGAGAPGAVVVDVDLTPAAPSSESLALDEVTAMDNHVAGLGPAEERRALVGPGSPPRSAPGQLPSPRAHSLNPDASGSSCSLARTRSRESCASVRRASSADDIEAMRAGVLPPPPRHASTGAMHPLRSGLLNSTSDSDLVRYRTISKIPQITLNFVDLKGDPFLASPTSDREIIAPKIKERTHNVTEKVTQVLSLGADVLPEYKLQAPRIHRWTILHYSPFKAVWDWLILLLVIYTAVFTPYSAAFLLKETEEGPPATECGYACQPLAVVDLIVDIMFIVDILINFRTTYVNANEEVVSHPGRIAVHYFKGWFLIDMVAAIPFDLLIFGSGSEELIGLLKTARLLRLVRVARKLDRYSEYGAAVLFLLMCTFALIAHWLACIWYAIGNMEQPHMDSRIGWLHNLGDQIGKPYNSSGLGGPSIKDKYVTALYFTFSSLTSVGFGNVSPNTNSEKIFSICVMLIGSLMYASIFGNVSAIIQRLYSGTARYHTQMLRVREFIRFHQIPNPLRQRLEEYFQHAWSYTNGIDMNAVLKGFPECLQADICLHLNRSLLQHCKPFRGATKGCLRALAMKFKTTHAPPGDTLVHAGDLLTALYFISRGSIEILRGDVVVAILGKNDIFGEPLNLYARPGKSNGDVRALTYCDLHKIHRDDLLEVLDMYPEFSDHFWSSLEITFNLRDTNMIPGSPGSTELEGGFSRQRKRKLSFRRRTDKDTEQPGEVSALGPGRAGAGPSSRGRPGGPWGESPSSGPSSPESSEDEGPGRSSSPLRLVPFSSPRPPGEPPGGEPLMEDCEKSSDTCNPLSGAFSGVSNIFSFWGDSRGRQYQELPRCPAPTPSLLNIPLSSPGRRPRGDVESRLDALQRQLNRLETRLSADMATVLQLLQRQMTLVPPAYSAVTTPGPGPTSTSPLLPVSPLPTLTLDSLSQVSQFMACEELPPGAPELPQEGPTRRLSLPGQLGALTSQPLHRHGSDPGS

[10] = Selectivity ratio of IC50 for JAK2 dependent EPO-induced STAT5A phosphorylation in human TF1 cells to IC50 for JAK1/JAK3 dependent IL2-induced STAT3 phosphorylation in human PBMC derived T-cells

Structure (SMILES) | fraction unbound [1] | Cmax [2] [nM] | remaining at 10 min [3] [%] | IC50 [4] [nM] | IC50 [5] [nM] | IC50 (JAK3/JAK1) [nM] | IC50 [6] [nM] | IC50 [7] [nM] | Papp A→B [8] [×10⁻⁶ cm/s] | IC50 [9] [nM] | Ratio IC50 [10]
CCOc1ccc(-c2cc3c(N[C@@H]4CC[C@](C)(N)C4(C)C)c(C(N)=O)cnn3c2)cn1 |  |  |  | 30 | 4 | 800 | 38 | 1.1 |  | 17000 | 120
CC1(C)[C@H](Nc2c(C(N)=O)cnn3cc(-c4cncc(F)c4)cc23)CC[C@]1(C)N |  |  |  | 44 | 6.6 | 220 | 60 | 1.9 |  |  | 
CC1(C)[C@H](Nc2c(C(N)=O)cnn3cc(-c4ccccc4C#N)cc23)CC[C@]1(C)N |  |  |  | 25 | 1.6 | 500 | 34 | 1.9 |  |  | 240
CC1(C)[C@H](Nc2c(C(N)=O)cnn3cc(-c4ccc(C#N)cc4)cc23)CC[C@]1(C)N |  |  |  | 7.3 | 0.9 | 66 | 8.6 | 1 |  |  | 
CC1(C)[C@H](Nc2c(C(N)=O)cnn3cc(-c4ccccc4Cl)cc23)CC[C@]1(C)N |  |  |  | 27 | 0.8 | > 1000 | 47 | 1.3 |  |  | 
COc1cccc(-c2cc3c(N[C@@H]4CC[C@](C)(N)C4(C)C)c(C(N)=O)cnn3c2)c1 |  |  |  | 15 | 1 | 200 | 12 | 0.4 |  | 7200 | 305
CC1(C)[C@H](Nc2c(C(N)=O)cnn3cc(-c4cccc(C#N)c4)cc23)CC[C@]1(C)N |  |  |  | 47 | 7.2 | > 1000 | 55 | 3.8 |  |  | 
CC1(C)[C@H](Nc2c(C(N)=O)cnn3cc(-c4cccc(F)c4)cc23)CC[C@]1(C)N |  |  |  | 22 | 1.2 | > 1000 | 22 | 1.6 |  | 7600 | 
COc1ccccc1-c1cc2c(N[C@@H]3CC[C@](C)(N)C3(C)C)c(C(N)=O)cnn2c1 |  |  |  | 20 | 0.5 | 680 | 21 | 1.3 |  | 7500 | 562
CC(C)Oc1ccc(-c2cc3c(N[C@@H]4CC[C@](C)(N)C4(C)C)c(C(N)=O)cnn3c2)cn1 |  |  |  | 20 | 1.2 | 400 | 30 | 0.5 |  | 5300 | 2
COc1ccc(-c2cc3c(N[C@@H]4CC[C@](C)(N)C4(C)C)c(C(N)=O)cnn3c2)cc1 |  |  |  | 15 | 0.6 | 170 | 9.2 | 1.5 |  | 13800 | 46
CC1(C)[C@H](Nc2c(C(N)=O)cnn3cc(-c4ccc(C#N)nc4)cc23)CC[C@]1(C)N |  |  |  | 29 | 6.6 | 430 | 47 | 1 |  |  | 

Second part, led by results:

fraction unbound [1] | Cmax [2] [nM] | remaining at 10 min [3] [%] | IC50 [4] [nM] | IC50 [5] [nM] | IC50 (JAK3/JAK1) [nM] | IC50 [6] [nM] | IC50 [7] [nM] | Papp A→B [8] [×10⁻⁶ cm/s] | Structure (SMILES) | IC50 [9] [nM] | Ratio IC50 [10]
0.31 | < 250 | 75 | 80 | 4.9 | 56 | 44 | 6.7 | < 1.5 | CC1(C)[C@H](Nc2c(C(N)=O)cnn3cc(-c4ccncc4)cc23)CC[C@]1(C)N |  | 
 |  |  | 22 | 2 | 84 | 29 | 0.9 |  | Cc1ccc(-c2cc3c(N[C@@H]4CC[C@](C)(N)C4(C)C)c(C(N)=O)cnn3c2)cn1 | 8000 | 80
 |  |  | 27 | 1.2 | 420 | 14 | 2.1 |  | CC1(C)[C@H](Nc2c(C(N)=O)cnn3cc(-c4ccc(F)cc4)cc23)CC[C@]1(C)N | 10200 | 230
 |  |  | 160 | 28 | 240 | 190 | 11 |  | CC1(C)[C@H](Nc2c(C(N)=O)cnn3cc(-c4cncnc4)cc23)CC[C@]1(C)N | 8500 | 180
 |  |  | 11 |  | 110 | 34 | 0.6 |  | CC1(C)[C@H](Nc2c(C(N)=O)cnn3cc(-c4cccnc4)cc23)CC[C@]1(C)N |  | 
 |  |  | 17 | 1.2 | 630 | 15 | 1.5 |  | CC1(C)[C@H](Nc2c(C(N)=O)cnn3cc(-c4ccccc4F)cc23)CC[C@]1(C)N |  | 
 |  |  | 19 | 2.4 | 75 | 29 | 4 |  | Cc1cnccc1-c1cc2c(N[C@@H]3CC[C@](C)(N)C3(C)C)c(C(N)=O)cnn2c1 | > 80000 | 250
 |  |  | 14 | 0.8 | > 2000 | 8.6 | 0.7 |  | Cc1ccc(-c2cc3c(N[C@@H]4CC[C@](C)(N)C4(C)C)c(C(N)=O)cnn3c2)cc1 |  | 
 |  |  | 11 | 0.9 | 700 | 7.9 | 0.9 |  | Cc1cccc(-c2cc3c(N[C@@H]4CC[C@](C)(N)C4(C)C)c(C(N)=O)cnn3c2)c1 | 7700 | 50
 |  |  | 49 | 0.7 | 490 | 51 | 1.8 |  | Cc1ccccc1-c1cc2c(N[C@@H]3CC[C@](C)(N)C3(C)C)c(C(N)=O)cnn2c1 |  | 
 |  |  | 140 |  | 97 | 180 |  |  | Cc1ccncc1-c1cc2c(N[C@@H]3CC[C@](C)(N)C3(C)C)c(C(N)=O)cnn2c1 | 18000 | 120
 |  |  | 38 | 3.3 | 270 | 59 | 1.6 |  | CC1(C)[C@H](Nc2c(C(N)=O)cnn3cc(-c4ccnc(F)c4)cc23)CC[C@]1(C)N |  | 
 |  |  | 15 | 0.9 |  | 10 | 0.8 |  | CC1(C)[C@H](Nc2c(C(N)=O)cnn3cc(-c4ccc(Cl)cc4)cc23)CC[C@]1(C)N |  | 
0.51 | < 250 | 83 | 21 | 1.7 | 81 | 14 | 1.6 | 6.5 | CC1(C)[C@H](Nc2c(C(N)=O)cnn3cc(-c4cc[nH]n4)cc23)CC[C@]1(C)N |  | 
 |  |  | 17 | 1.3 | 780 | 20 | 1 |  | CC1(C)[C@H](Nc2c(C(N)=O)cnn3cc(-c4cccc(Cl)c4)cc23)CC[C@]1(C)N |  | 
 |  |  | 36 | 2.3 | 350 | 36 | 2.8 |  | COc1cc(-c2cc3c(N[C@@H]4CC[C@](C)(N)C4(C)C)c(C(N)=O)cnn3c2)ccn1 |  | 86
0.22 | < 250 | 68 | 70 | 3.6 | 120 | 46 | 4.6 | 2.3 | CC1(C)[C@H](Nc2c(C(N)=O)cnn3cc(-c4ccncc4F)cc23)CC[C@]1(C)N | > 80000 | 150
 |  |  | 3.5 | 0.6 | 55 | 5.7 | 0.6 |  | Cc1cc(-c2cc3c(N[C@@H]4CC[C@](C)(N)C4(C)C)c(C(N)=O)cnn3c2)ccn1 | 30000 | 8
